Source: publication PMC11637483, “Dissecting caspase-2-mediated cell death: from intrinsic PIDDosome activation to chemical modulation” (Protein & Cell, 2024)

Experiments:
Jurkat cells = test: Cell death and caspase-2 processing in Jurkat cells (endogenous caspase-2); type: cell-based, human; conditions: 8 h
Description: (§1) We further examined whether HUHS015-derived compounds could activate endogenous caspase-2 in human cells. […] Complementing the CASP2^−/− Jurkat cells with exogenous caspase-2 restored HUHS015-36-induced apoptosis, in which caspase-2 was expectedly processed (Fig. 5A and 5B). We also profiled caspase-2 expression in a panel of 10 mouse tumor cell lines and observed highly variable expression levels (Fig. 5C). […] In B16-F10 (melanoma), LLC1 (Lewis lung carcinoma), MB49 (bladder carcinoma), KPC (pancreatic ductal adenocarcinoma), and 4T1 (mammary carcinoma) cells, caspase-2 was expressed at much lower levels (Fig. 5C). In contrast, EMT6 (mammary carcinoma), EL4 (T lymphoblast), and Hepa1-6 (hepatoma) feature robust caspase-2 expression, much higher than in Jurkat cells (Fig. 5C).
Figure 5. HUHS015-36 activates endogenous caspase-2 to induce apoptosis in Jurkat cells but not mouse cells. […] Lysates of 10 mouse cancer cell lines were analyzed by immunoblotting using indicated antibodies. […] ATP cell viability (A and D) is expressed as mean ± s.d. from three technical replicates. […]
(§2) Cell viability was measured by the ATP assay using the CellTiter-Glo® Luminescent Cell Viability Assay kit (Promega).
To stimulate caspase-2 activation, PIDD1-CC controlled by a Tet-On inducible system was introduced into indicated cells. […] Cell lysates were analyzed by standard immunoblotting.

MBP = MBP (Escherichia coli, UniProt P0AEX9); test: MicroScale Thermophoresis binding to MBP alone (control); conditions: MST
Description: The above results prompted us to reason whether HUHS015-36 could directly target caspase-2 for activation without the requirement of any other mediator. To directly test this hypothesis, we tried to obtain purified caspase-2 protein. The preparation of full-length caspase-2 protein is known to be technically challenging. Meanwhile, the CARD domain of a caspase often plays the role in sensing upstream signals, as exemplified by the CARD of caspase-2 that is recruited by RAIDD through the CARD–CARD interaction for assembling the PIDDosome. […]
Figure 4. […] (A) The direct binding between HUHS015-36 and MBP-fused human caspase-2 pro-domain was detected by microscale thermophoresis (MST). […] The calculated dissociation constant (KD) is expressed as means ± s.d. from two determinations. […] ATP-based cell viability in panels (C–E) is expressed as mean ± s.d. from three technical replicates. […] TEXT PRINTED IN THE PICTURE: (A) HUHS015-36: MBP-CASP2(32–165) vs. HUHS015-36: KD (μmol/L): 22.05 ± 6.151; MBP vs. HUHS015-36: KD (μmol/L): Not detected
MicroScale thermophoresis (MST) experiments were carried out at 25°C in the PBST Buffer (PBS with 0.05%, v/v Tween 20) by using a Monolith 2020 (TNG) (MM-208). […] The temperature-induced changes in fluorescence intensity of each sample in the capillary thermophoresis tubes were recorded by the Monolith instrument. […]

EL4 cells = test: Cell death and caspase-2 processing in EL4 cells; type: cell-based, mouse; conditions: EL4, 8 h
Description: as §1
Figure 5. HUHS015-36 activates endogenous caspase-2 to induce apoptosis in Jurkat cells but not mouse cells. (A and B) HUHS015-36 activates endogenous caspase-2 and induces apoptosis in human Jurkat cells. […] Lysates of 10 mouse cancer cell lines were analyzed by immunoblotting using indicated antibodies. […] ATP cell viability (A and D) is expressed as mean ± s.d. from three technical replicates. […]
as §2

[1] = system: caspase-2 interdomain linker mutants in HeLa TKO cells; test: Cell death and caspase-2 activation in HeLa TKO cells expressing caspase-2 linker mutants; type: cell-based
Description: Figure 4. HUHS015 activates human caspase-2 directly through specific targeting of the interdomain linker of caspase-2. (A) The direct binding between HUHS015-36 and MBP-fused human caspase-2 pro-domain was detected by microscale thermophoresis (MST). MST profiles for raw binding signals and affinity (KD) measurement are shown. The calculated dissociation constant (KD) is expressed as means ± s.d. from two determinations. (B) Sequence alignment of the pro-domain (residues 1–169) of human and mouse caspase-2. CARD domain annotation is shown on top of the sequences. Identical residues are in red background and conserved ones are in red. Numbers of starting residues are indicated on the left. Different residues in the interdomain linker (residues 122–169) were highlighted with green color. (C) HUHS015 activates human but not mouse caspase-2. HeLa TKO cells rescued with human or mouse caspase-2 expression were treated with HUHS015 for the indicated time. ATP-based cell viability and immunoblotting detecting caspase-2 processing are shown. […] ATP-based cell viability in panels (C–E) is expressed as mean ± s.d. from three technical replicates. […] TEXT PRINTED IN THE PICTURE: (A) HUHS015-36: MBP-CASP2(32–165) vs. HUHS015-36: KD (μmol/L): 22.05 ± 6.151; MBP vs. HUHS015-36: KD (μmol/L): Not detected […]

Row | Compound | caspase-2 processing and cell death (Jurkat cells; CASP2 knockout Jurkat cells) | caspase-2 processing and cell death (Jurkat cells; WT Jurkat cells) | KD (MBP) | caspase-2 processing and cell death (EL4 cells) | caspase-2 activation and cell death ([1]; human caspase-2 with L150 and Y151 replaced by mouse P150 and H151, 5 h) | caspase-2 activation and apoptosis ([1]; mouse caspase-2 with P150 and H151 replaced by L150 and Y151, 5 h)
1 | Cc1cccc2nc(-n3nc4c(c3O)CCCC4)[nH]c12 [HUHS015-36] | completely diminished | induced evident caspase-2 processing and cell death | Not detected | no caspase-2 processing and cell death were detected | – | –
2 | Cc1ccc2nc(-n3nc(C)c(Cc4ccccc4)c3O)[nH]c2c1 [HUHS015] | – | – | – | – | abolished | capable of being activated
